{"source": "paper PMC10796436", "about": "“Peptidyl nitroalkene inhibitors of main protease rationalized by computational and crystallographic investigations as antivirals against SARS-CoV-2” (Communications Chemistry, 2024)", "key": {"M^pro [1]": {"biological_target": "T1, M^pro (Severe acute respiratory syndrome coronavirus 2, UniProt P0DTD1)", "experiment": "Binding to M^pro by ultracentrifugation (sedimentation method)"}, "M^pro [2]": {"biological_target": "T1, M^pro", "type": "biochemical", "conditions": "for Fluorescence reading (progress curve): triplicate wells", "description": "Buffer: 20 mM Tris, 0.1 mM EDTA, 1 mM DTT, 200 mM NaCl pH = 7.5. For the dilution assay Nirmatrelvir[21] was used as a reversible control and LM188[54] as an irreversible control (Fig. 10).\nThe incubation was done at RT for 30 min in assay buffer. DMSO was used as a control. After incubation the Enzyme/Inhibitor (or DMSO) mixtures were diluted 100-fold in assay buffer.\nThe preincubation was done in assay buffer (20 mM Tris, 0.1 mM EDTA, 1 mM DTT, 200 mM NaCl, pH = 7.5), at RT for 30 min. After incubation the mixtures were diluted […]\nproteolytic activity of the enzyme was measured as described for the enzymatic assays using the […]\nactivity was measured over 1 h.\nInhibition assay58. Trypsin: Enzyme: bovine trypsin purchased from Sigma-Aldrich (St. Louis, […]\nSubstrate: Cbz-FR-AMC purchased from Bachem (Bubendorf, Switzerland), [Substrate]: 40 µM […]\nThe activity against bovine trypsin was tested at 20 µM inhibitor concentration. […]"}, "DNMT2": {"biological_target": "T2, DNMT2 (Homo sapiens, UniProt O14717)", "T2 sequence (O14717 1-391)": "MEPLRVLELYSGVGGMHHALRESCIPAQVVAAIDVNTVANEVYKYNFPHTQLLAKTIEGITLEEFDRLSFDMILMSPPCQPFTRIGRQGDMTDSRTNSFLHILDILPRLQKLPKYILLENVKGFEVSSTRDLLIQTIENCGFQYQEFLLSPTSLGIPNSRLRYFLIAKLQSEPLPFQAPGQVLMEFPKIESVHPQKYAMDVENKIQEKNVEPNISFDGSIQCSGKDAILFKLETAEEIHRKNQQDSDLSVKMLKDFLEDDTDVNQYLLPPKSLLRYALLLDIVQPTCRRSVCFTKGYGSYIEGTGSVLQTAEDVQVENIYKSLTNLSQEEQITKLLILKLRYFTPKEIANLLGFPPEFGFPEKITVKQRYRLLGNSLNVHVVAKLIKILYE", "experiment": "DNMT2 MST-displacement assay", "type": "binding", "conditions": "100 μM", "description": "DNMT2 MST-Displacement Assay. Assay was conducted according to literature 59. The average of quadruple measurements is depicted for two independent measurements each. The positive control was measured without DNMT2 to detect totally unbound FTAD, additionally Sinefungin (SFG), a literature described DNMT2 inhibitor, was used as a second positive control. SFG and FGA146 concentrations in this assay were 100 µM each.\nFigure 26. Microscale Thermophoresis displacement experiment against DNMT2.\nOther potential off-targets. A search in ChEMBL database for the term “nitroalkene” gave the following papers (excluded 2 synthesis papers using nitroalkenes as reactants) - https://doi.org/10.1021/acsmedchemlett.6b00276: Nitroalkenes against rhodesain and cruzain - https://doi.org/10.1021/jm900326c: Nitroalkene fatty acids against PPARγ - https://doi.org/10.1016/j.ejmech.2012.08.013: Nitroalkene as head group against minor groove binders (anti-infective)\nResults one and three are irrelevant due to different organisms as targets. Restult 2 is unlikely to be important, as fatty acid structure deviates from peptidic structure of inhibitors under investigation […]"}, "[3]": {"experiment": "logP determination by HPLC", "type": "physicochemical", "conditions": "HPLC retention time", "protocol": "experimental logP was determined. After unsuccessful evaluation by a classical extraction method\nfor determination, an HPLC-based estimation of hydrophobicity by retention time was utilized.\nFollowing a publication60, a set of 9 compounds was chosen for preparing a calibration curve of\nhydrophobicity indices and logPs.\nλ = 254 nm, n = 1). Calibration of hydrophobicity was performed with a mixture of thiourea (Merck\nFisher Scientific, A12727.AP), Indole (Sigma Aldrich, W259306), Butyrophenone (Merck\n1 mg/mL each in 50:50 [50 mM NH4OAc buffer pH 7.2/ACN]60 (n = 1). Analysis was performed\nwas used for elution with a binary pump using [50 mM NH4OAc buffer pH 7.2/ACN] (1 mL/min):\nFor calculation of unknown logP with this method, the following equation is used:\nSignals at 6 and >14 min are due to impurities from\ncolumn that are detected in all measurements and are therefore not taken into account."}, "M^pro [4]": {"biological_target": "T1, M^pro", "experiment": "Binding to M^pro by ITC", "set-up": "DP / DH: unit not given here"}}, "note": "Values joined by “and” are separate entries in the source; they are usually repeats but may differ in a detail not shown here. Equal values may be shown once. Read-outs that look alike come from different tables or passages of the source."}
{"smiles": "COc1cccc2[nH]c(C(=O)N[C@@H](CC(C)C)C(=O)N[C@H](/C=C/[N+](=O)[O-])C[C@@H]3CCNC3=O)cc12", "note": "[FGA146]", "values": [{"measurement": "Fraction bound, Absorption", "setting": "M^pro [1]; ligand concentration 0.1", "value": 0.00706}, {"measurement": "Fraction bound, Fluorescence", "setting": "M^pro [1]; ligand concentration 0.1", "value": 0.00606}, {"measurement": "Fraction bound, Absorption", "setting": "M^pro [1]; ligand concentration 0.5", "value": 0.0199}, {"measurement": "Fraction bound, Fluorescence", "setting": "M^pro [1]; ligand concentration 0.5", "value": 0.0299}, {"measurement": "Fraction bound, Absorption", "setting": "M^pro [1]; ligand concentration 1", "value": 0.07275}, {"measurement": "Fraction bound, Fluorescence", "setting": "M^pro [1]; ligand concentration 1", "value": 0.06275}, {"measurement": "Fraction bound, Absorption", "setting": "M^pro [1]; ligand concentration 5", "value": 0.3362}, {"measurement": "Fraction bound, Fluorescence", "setting": "M^pro [1]; ligand concentration 5", "value": 0.3162}, {"measurement": "Fraction bound, Absorption", "setting": "M^pro [1]; ligand concentration 10", "value": 0.6468}, {"measurement": "Fraction bound, Fluorescence", "setting": "M^pro [1]; ligand concentration 10", "value": 0.623}, {"measurement": "Fraction bound, Absorption", "setting": "M^pro [1]; ligand concentration 25", "value": 0.9146}, {"measurement": "Fraction bound, Fluorescence", "setting": "M^pro [1]; ligand concentration 25", "value": 0.8218}, {"measurement": "Fraction bound, Absorption", "setting": "M^pro [1]; ligand concentration 50", "value": 0.9678}, {"measurement": "Fraction bound, Fluorescence", "setting": "M^pro [1]; ligand concentration 50", "value": 0.9995}, {"measurement": "Fraction bound, Absorption", "setting": "M^pro [1]; ligand concentration 100", "value": 1.004}, {"measurement": "Fraction bound, Fluorescence", "setting": "M^pro [1]; ligand concentration 100", "value": 0.9916}, {"measurement": "Kd", "setting": "M^pro [1]; ultracentrifugation, 25 °C", "value": "7.28 ± 0.58", "unit": "µM"}, {"measurement": "Fluorescence reading (progress curve)", "setting": "M^pro [2]; Time 180.071 s", "value": "702 and 681 and 686"}, {"measurement": "Fluorescence reading (progress curve)", "setting": "M^pro [2]; Time 210.081 s", "value": "743 and 723 and 735"}, {"measurement": "Fluorescence reading (progress curve)", "setting": "M^pro [2]; Time 240.095 s", "value": "788 and 769 and 779"}, {"measurement": "Fluorescence reading (progress curve)", "setting": "M^pro [2]; Time 270.113 s", "value": "832 and 815 and 822"}, {"measurement": "Fluorescence reading (progress curve)", "setting": "M^pro [2]; Time 300.118 s", "value": "871 and 859 and 876"}, {"measurement": "Fluorescence reading (progress curve)", "setting": "M^pro [2]; Time 330.126 s", "value": "913 and 895 and 906"}, {"measurement": "Fluorescence reading (progress curve)", "setting": "M^pro [2]; Time 360.134 s", "value": "943 and 930 and 957"}, {"measurement": "Fluorescence reading (progress curve)", "setting": "M^pro [2]; Time 390.141 s", "value": "989 and 974 and 988"}, {"measurement": "Fluorescence reading (progress curve)", "setting": "M^pro [2]; Time 420.149 s", "value": "1026 and 1011 and 1031"}, {"measurement": "Fluorescence reading (progress curve)", "setting": "M^pro [2]; Time 450.157 s", "value": "1063 and 1040"}, {"measurement": "Fluorescence reading (progress curve)", "setting": "M^pro [2]; Time 2881.2 s", "value": "2210 and 2162 and 2202"}, {"measurement": "Fluorescence reading (progress curve)", "setting": "M^pro [2]; Time 2911.21 s", "value": "2205 and 2168 and 2199"}, {"measurement": "Fluorescence reading (progress curve)", "setting": "M^pro [2]; Time 2941.22 s", "value": "2214 and 2173 and 2206"}, {"measurement": "Fluorescence reading (progress curve)", "setting": "M^pro [2]; Time 2971.24 s", "value": "2207 and 2185 and 2213"}, {"measurement": "Fluorescence reading (progress curve)", "setting": "M^pro [2]; Time 3001.25 s", "value": "2222 and 2185 and 2232"}, {"measurement": "Fluorescence reading (progress curve)", "setting": "M^pro [2]; Time 3031.26 s", "value": "2246 and 2178 and 2225"}, {"measurement": "Fluorescence reading (progress curve)", "setting": "M^pro [2]; Time 3061.27 s", "value": "2233 and 2191 and 2237"}, {"measurement": "Fluorescence reading (progress curve)", "setting": "M^pro [2]; Time 3091.28 s", "value": "2243 and 2199 and 2235"}, {"measurement": "Fluorescence reading (progress curve)", "setting": "M^pro [2]; Time 3121.29 s", "value": "2244 and 2187 and 2224"}, {"measurement": "Fluorescence reading (progress curve)", "setting": "M^pro [2]; Time 3151.3 s", "value": "2247 and 2204 and 2241"}, {"measurement": "Fluorescence reading (progress curve)", "setting": "M^pro [2]; Time 3181.31 s", "value": "2224 and 2196 and 2245"}, {"measurement": "Fluorescence reading (progress curve)", "setting": "M^pro [2]; Time 3211.32 s", "value": "2250 and 2188 and 2275"}, {"measurement": "Fluorescence reading (progress curve)", "setting": "M^pro [2]; Time 3241.33 s", "value": "2234 and 2200"}, {"measurement": "Fluorescence reading (progress curve)", "setting": "M^pro [2]; Time 3271.34 s", "value": "2236 and 2195 and 2245"}, {"measurement": "Fluorescence reading (progress curve)", "setting": "M^pro [2]; Time 3301.35 s", "value": "2233 and 2201 and 2238"}, {"measurement": "Fluorescence reading (progress curve)", "setting": "M^pro [2]; Time 3331.36 s", "value": "2246 and 2198 and 2261"}, {"measurement": "Fluorescence reading (progress curve)", "setting": "M^pro [2]; Time 3361.37 s", "value": "2261 and 2203 and 2250"}, {"measurement": "Fluorescence reading (progress curve)", "setting": "M^pro [2]; Time 3391.39 s", "value": "2251 and 2199 and 2248"}, {"measurement": "Fluorescence reading (progress curve)", "setting": "M^pro [2]; Time 3421.39 s", "value": "2261 and 2206 and 2226"}, {"measurement": "Fluorescence reading (progress curve)", "setting": "M^pro [2]; Time 3451.41 s", "value": "2253 and 2215 and 2257"}, {"measurement": "Fluorescence reading (progress curve)", "setting": "M^pro [2]; Time 3481.42 s", "value": "2274 and 2215 and 2263"}, {"measurement": "Fluorescence reading (progress curve)", "setting": "M^pro [2]; Time 3511.43 s", "value": "2266 and 2207 and 2242"}, {"measurement": "Fluorescence reading (progress curve)", "setting": "M^pro [2]; Time 3541.44 s", "value": "2263 and 2215 and 2260"}, {"measurement": "Fluorescence reading (progress curve)", "setting": "M^pro [2]; Time 3571.45 s", "value": "2254 and 2212 and 2248"}, {"measurement": "recovery of M^pro activity after 100-fold dilution", "setting": "M^pro [2]; preincubation 30 min", "value": "seems to recover over time"}, {"measurement": "displacement of FTAD from DNMT2", "setting": "DNMT2", "value": "non-binder"}, {"measurement": "logPexp", "setting": "[3]", "value": 2.0}]}
{"smiles": "CC(C)C[C@H](NC(=O)OCc1ccccc1)C(=O)N[C@H](/C=C/[N+](=O)[O-])C[C@@H]1CCNC1=O", "note": "[FGA147]", "values": [{"measurement": "Kd", "setting": "M^pro [4]; ITC, 25 °C", "value": "2.86 ± 0.25", "unit": "µM"}, {"measurement": "DH", "setting": "M^pro [4]; Molar ratio 0.39455", "value": -0.9026}, {"measurement": "DH", "setting": "M^pro [4]; Molar ratio 0.72682", "value": -0.8799}, {"measurement": "DH", "setting": "M^pro [4]; Molar ratio 1.06223", "value": -0.8369}, {"measurement": "DP", "setting": "M^pro [4]; Time 0.08333 min", "value": -0.00244}, {"measurement": "DP", "setting": "M^pro [4]; Time 0.10000 min", "value": -0.00119}, {"measurement": "DP", "setting": "M^pro [4]; Time 0.11667 min", "value": -0.00067}]}
